The subject of this assay is RAMOS cells (Burkitt's lymphoma cell line). Kind of assay: Anti-proliferation assay (CellTiter-Glo). In kind it is cell-based. The conditions noted are these: Homo sapiens, 72 h, 3 days. The procedure:
In cell growth experiments, cells were seeded in 96-well cell culture plates at a density of 3000 of RAMOS cells/well in 100 μL of culture medium. 100 μL of the diluted solution containing the tested compound was added to the appropriate wells of the cell plate. After addition of the tested compound, the cells were incubated at 37° C. in an atmosphere of 5% CO2 for 3 days. CellTiter-Glo (CTG) reagent from the Promega CellTiter-Glo Luminescent Cell Viability Assay kit (#G7572) was added into an OptiPlate 96 (Perkin Elmer, White, Opaque, #6005299) in the dark, incubated for at least 2 hrs, and luminescence signal was read using Tecan Safire II Multi-Mode Plate Reader. The GI50 was calculated by nonlinear regression analysis using GraphPad Prism5 software.
GI50 is the concentration for 50% of maximal inhibition of cell proliferation.
(ATP-based viability assays read luminescence as a measure of living cells.)
For orientation: GI50 means the concentration that inhibits growth by half. Lower therefore signals greater sensitivity of the cells. In turn, `Cc1sc2c(c1C)C(c1ccc(Cl)cc1)=N[C@@H](CC(=O)Nc1ccc(OCCOCCOCCNc3ccc(-c4ccc5c(c4)CC(=O)N5)cn3)cc1)c1nnc(C)n1-2` [Compound 118, (S)-2-(4-(4-chlorophenyl)-2,3,9-trimethyl-6H-thieno[3,2-f][1,2,4]triazolo[4,3-a][1,4]diazepin-6-yl)-N-(4-(2-(2-(2-((5-(2-oxoindolin-5-yl)pyridin-2-yl)amino)ethoxy)ethoxy)ethoxy)phenyl)acetamide] returned a GI50 of 0.1 to 1 µM.
Consider `Cc1sc2c(c1C)C(c1ccc(Cl)cc1)=N[C@@H](CC(=O)N1CCN(c3ccc(-c4ccc5c(c4)CC(=O)N5)cn3)CC1)c1nnc(C)n1-2` [Compound 119, (S)-5-(6-(4-(2-(4-(4-chlorophenyl)-2,3,9-trimethyl-6H-thieno[3,2-f][1,2,4]triazolo[4,3-a][1,4]diazepin-6-yl)acetyl)piperazin-1-yl)pyridin-3-yl)indolin-2-one], for which the 50% growth inhibitory concentration (GI50) lay within 0.1 to 1 µM.
As for `Cc1sc2c(c1C)C(c1ccc(Cl)cc1)=N[C@@H](CC(=O)NCCOCCOCCC(=O)N1CCN(c3ccc(-c4ccc5c(c4)CC(=O)N5)cn3)CC1)c1nnc(C)n1-2` [Compound 120], the GI50 lay in the range of 0.001 to 0.1 µM.
For `Cc1sc2c(c1C)C(c1ccc(Cl)cc1)=N[C@@H](CC(=O)NCCOCCOCCOCCNc1ccc(-c3ccc4c(c3)CC(=O)N4C)cn1)c1nnc(C)n1-2` [Compound 121, (S)-2-(4-(4-chlorophenyl)-2,3,9-trimethyl-6H-thieno[3,2-f][1,2,4]triazolo[4,3-a][1,4]diazepin-6-yl)-N-(2-(2-(2-(2-((5-(1-methyl-2-oxoindolin-5-yl)pyridin-2-yl)amino)ethoxy)ethoxy)ethoxy)ethyl)acetamide] the value was 0.1 to 1 µM.
The compound `Cc1sc2c(c1C)C(c1ccc(Cl)cc1)=N[C@@H](CC(=O)N1CCC(N3CCN(c4ccc(-c5ccc6c(c5)CC(=O)N6)cn4)CC3)CC1)c1nnc(C)n1-2` [Compound 123, (S)-5-(6-(4-(1-(2-(4-(4-chlorophenyl)-2,3,9-trimethyl-6H-thieno[3,2-f][1,2,4]triazolo[4,3-a][1,4]diazepin-6-yl)acetyl)piperidin-4-yl)piperazin-1-yl)pyridin-3-yl)indolin-2-one] returned a GI50 of 0.001 to 0.1 µM.
For `Cc1sc2c(c1C)C(c1ccc(Cl)cc1)=N[C@@H](CC(=O)NCCNc1ccc(-c3ccc4c(c3)CC(=O)N4)cn1)c1nnc(C)n1-2` [Compound 124, (S)-2-(4-(4-chlorophenyl)-2,3,9-trimethyl-6H-thieno[3,2-f][1,2,4]triazolo[4,3-a][1,4]diazepin-6-yl)-N-(2-((5-(2-oxoindolin-5-yl)pyridin-2-yl)amino)ethyl)acetamide] the value was 0.001 to 0.1 µM; for `Cc1sc2c(c1C)C(c1ccc(Cl)cc1)=N[C@@H](CC(=O)NC1CCN(c3ccc(-c4ccc5c(c4)CC(=O)N5)cn3)CC1)c1nnc(C)n1-2` [Compound 125, (S)-2-(4-(4-chlorophenyl)-2,3,9-trimethyl-6H-thieno[3,2-f][1,2,4]triazolo[4,3-a][1,4]diazepin-6-yl)-N-(1-(5-(2-oxoindolin-5-yl)pyridin-2-yl)piperidin-4-yl)acetamide], 0.001 to 0.1 µM; for `Cc1sc2c(c1C)C(c1ccc(Cl)cc1)=N[C@@H](CC(=O)NCCCCCNc1ccc(-c3ccc4c(c3)CC(=O)N4)cn1)c1nnc(C)n1-2` [Compound 126, (S)-2-(4-(4-chlorophenyl)-2,3,9-trimethyl-6H-thieno[3,2-f][1,2,4]triazolo[4,3-a][1,4]diazepin-6-yl)-N-(5-((5-(2-oxoindolin-5-yl)pyridin-2-yl)amino)pentyl)acetamide], 0.001 to 0.1 µM.
Then `Cc1sc2c(c1C)C(c1ccc(Cl)cc1)=N[C@@H](CC(=O)NCC1CCN(c3ccc(-c4ccc5c(c4)CC(=O)N5)cn3)CC1)c1nnc(C)n1-2` [Compound 127, (S)-2-(4-(4-chlorophenyl)-2,3,9-trimethyl-6H-thieno[3,2-f][1,2,4]triazolo[4,3-a][1,4]diazepin-6-yl)-N-((1-(5-(2-oxoindolin-5-yl)pyridin-2-yl)piperidin-4-yl)methyl)acetamide], with 0.1 to 1 µM.
For `Cc1sc2c(c1C)C(c1ccc(Cl)cc1)=N[C@@H](CC(=O)NC1CN(c3ccc(-c4ccc5c(c4)CC(=O)N5)cn3)C1)c1nnc(C)n1-2` [Compound 128, (S)-2-(4-(4-chlorophenyl)-2,3,9-trimethyl-6H-thieno[3,2-f][1,2,4]triazolo[4,3-a][1,4]diazepin-6-yl)-N-(1-(5-(2-oxoindolin-5-yl)pyridin-2-yl)azetidin-3-yl)acetamide] the value was 0.1 to 1 µM; for `Cc1sc2c(c1C)C(c1ccc(Cl)cc1)=N[C@@H](CC(=O)NC1CCN(c3ccc(-c4ccc5c(c4)CC(=O)N5)cn3)C1)c1nnc(C)n1-2` (stereo partly drawn) [Compound 129, 2-((S)-4-(4-chlorophenyl)-2,3,9-trimethyl-6H-thieno[3,2-f][1,2,4]triazolo[4,3-a][1,4]diazepin-6-yl)-N-(1-(5-(2-oxoindolin-5-yl)pyridin-2-yl)pyrrolidin-3-yl)acetamide], 0.001 to 0.1 µM.
In turn, `Cc1sc2c(c1C)C(c1ccc(Cl)cc1)=N[C@@H](CC(=O)NCCOCCC(=O)N1CCN(c3ccc(-c4ccc5c(c4)CC(=O)N5)cn3)CC1)c1nnc(C)n1-2` [Compound 130, (S)-2-(4-(4-chlorophenyl)-2,3,9-trimethyl-6H-thieno[3,2-f][1,2,4]triazolo[4,3-a][1,4]diazepin-6-yl)-N-(2-(3-oxo-3-(4-(5-(2-oxoindolin-5-yl)pyridin-2-yl)piperazin-1-yl)propoxy)ethyl)acetamide] yielded a GI50 of 0.001 to 0.1 µM.
On to `Cc1sc2c(c1C)C(c1ccc(Cl)cc1)=N[C@@H](CC(=O)Nc1ccc(OCCOCCOCCOCCOCCNc3ccc(-c4ccc5c(c4)CC(=O)N5)cn3)cc1)c1nnc(C)n1-2` [Compound 131, (S)-2-(4-(4-chlorophenyl)-2,3,9-trimethyl-6H-thieno[3,2-f][1,2,4]triazolo[4,3-a][1,4]diazepin-6-yl)-N-(4-((14-((5-(2-oxoindolin-5-yl)pyridin-2-yl)amino)-3,6,9,12-tetraoxatetradecyl)oxy)phenyl)acetamide], for which the GI50 lay within 0.001 to 0.1 µM.
Consider `Cc1sc2c(c1C)C(c1ccc(Cl)cc1)=N[C@@H](CC(=O)NCCOCCOc1ccc(-c3ccc4c(c3)CC(=O)N4)cn1)c1nnc(C)n1-2` [Compound 132, (S)-2-(4-(4-chlorophenyl)-2,3,9-trimethyl-6H-thieno[3,2-f][1,2,4]triazolo[4,3-a][1,4]diazepin-6-yl)-N-(2-(2-((5-(2-oxoindolin-5-yl)pyridin-2-yl)oxy)ethoxy)ethyl)acetamide], for which the GI50 was in the range of 0.001 to 0.1 µM.
For `Cc1sc2c(c1C)C(c1ccc(Cl)cc1)=N[C@@H](CC(=O)NCCOCCNc1ncc(-c3ccc4c(c3)CC(=O)N4)cn1)c1nnc(C)n1-2` [Compound 133, (S)-2-(4-(4-chlorophenyl)-2,3,9-trimethyl-6H-thieno[3,2-f][1,2,4]triazolo[4,3-a][1,4]diazepin-6-yl)-N-(2-(2-((5-(2-oxoindolin-5-yl)pyrimidin-2-yl)amino)ethoxy)ethyl)acetamide] the value was 0.001 to 0.1 µM; for `Cc1sc2c(c1C)C(c1ccc(Cl)cc1)=N[C@@H](CC(=O)NCCC1CCN(c3ccc(-c4ccc5c(c4)CC(=O)N5)cn3)CC1)c1nnc(C)n1-2` [Compound 134, (S)-2-(4-(4-chlorophenyl)-2,3,9-trimethyl-6H-thieno[3,2-f][1,2,4]triazolo[4,3-a][1,4]diazepin-6-yl)-N-(2-(1-(5-(2-oxoindolin-5-yl)pyridin-2-yl)piperidin-4-yl)ethyl)acetamide], 0.001 to 0.1 µM; for `Cc1sc2c(c1C)C(c1ccc(Cl)cc1)=N[C@@H](CC(=O)NCCOCCNc1ncccc1-c1ccc3c(c1)CC(=O)N3)c1nnc(C)n1-2` [Compound 135, (S)-2-(4-(4-chlorophenyl)-2,3,9-trimethyl-6H-thieno[3,2-f][1,2,4]triazolo[4,3-a][1,4]diazepin-6-yl)-N-(2-(2-((3-(2-oxoindolin-5-yl)pyridin-2-yl)amino)ethoxy)ethyl)acetamide], 0.001 to 0.1 µM.
For `Cc1sc2c(c1C)C(c1ccc(Cl)cc1)=N[C@@H](CC(=O)NC1CCN(c3ncccc3-c3ccc4c(c3)CC(=O)N4)CC1)c1nnc(C)n1-2` [Compound 136, (S)-2-(4-(4-chlorophenyl)-2,3,9-trimethyl-6H-thieno[3,2-f][1,2,4]triazolo[4,3-a][1,4]diazepin-6-yl)-N-(1-(3-(2-oxoindolin-5-yl)pyridin-2-yl)piperidin-4-yl)acetamide] the value was 0.001 to 0.1 µM; for `Cc1sc2c(c1C)C(c1ccc(Cl)cc1)=N[C@@H](CC(=O)N1CCC3(CCN(c4ncccc4-c4ccc5c(c4)CC(=O)N5)C3)C1)c1nnc(C)n1-2` (stereo partly drawn) [Compound 137], 0.1 to 1 µM; for `Cc1sc2c(c1C)C(c1ccc(Cl)cc1)=N[C@@H](CC(=O)NC1CC3(C1)CC(Nc1ncccc1-c1ccc4c(c1)CC(=O)N4)C3)c1nnc(C)n1-2` (stereo partly drawn) [Compound 138, (S)-2-(4-(4-chlorophenyl)-2,3,9-trimethyl-6H-thieno[3,2-f][1,2,4]triazolo[4,3-a][1,4]diazepin-6-yl)-N-(6-((3-(2-oxoindolin-5-yl)pyridin-2-yl)amino)spiro[3.3]heptan-2-yl)acetamide], 0.001 to 0.1 µM.
Then `Cc1sc2c(c1C)C(c1ccc(Cl)cc1)=N[C@@H](CC(=O)NCCCCNc1ncccc1-c1ccc3c(c1)CC(=O)N3)c1nnc(C)n1-2` [Compound 139, (S)-2-(4-(4-chlorophenyl)-2,3,9-trimethyl-6H-thieno[3,2-f][1,2,4]triazolo[4,3-a][1,4]diazepin-6-yl)-N-(4-((3-(2-oxoindolin-5-yl)pyridin-2-yl)amino)butyl)acetamide], with 0.1 to 1 µM.

Values taken from patent publication US11542274B1, “Therapeutic compounds and methods of use thereof” (AGENCY FOR SCIENCE, TECHNOLOGY AND RESEARCH (A*STAR), priority 2019, dated 2023).
